Assay results published in patent US20240101572A1, “DIHYDROOXADIAZINONE COMPOUND AND PHARMACEUTICAL USE THEREOF” (Japan Tobacco Inc., priority 2022, published 2024).
Where two headings read alike, the source gives them in different places.

What was measured:
[1] = biological target: full-length human PLD2 (Homo sapiens (Human), UniProt O14939); assay: Evaluation of human PLD2 enzyme inhibitory activity (Amplex Red / choline oxidase fluorescence); format: biochemical; settings: for IC50: full-length human PLD2 enzyme, read-out: PLD2 IC50
full-length human PLD2, sequence (O14939 whole entry, the tested form may be a part): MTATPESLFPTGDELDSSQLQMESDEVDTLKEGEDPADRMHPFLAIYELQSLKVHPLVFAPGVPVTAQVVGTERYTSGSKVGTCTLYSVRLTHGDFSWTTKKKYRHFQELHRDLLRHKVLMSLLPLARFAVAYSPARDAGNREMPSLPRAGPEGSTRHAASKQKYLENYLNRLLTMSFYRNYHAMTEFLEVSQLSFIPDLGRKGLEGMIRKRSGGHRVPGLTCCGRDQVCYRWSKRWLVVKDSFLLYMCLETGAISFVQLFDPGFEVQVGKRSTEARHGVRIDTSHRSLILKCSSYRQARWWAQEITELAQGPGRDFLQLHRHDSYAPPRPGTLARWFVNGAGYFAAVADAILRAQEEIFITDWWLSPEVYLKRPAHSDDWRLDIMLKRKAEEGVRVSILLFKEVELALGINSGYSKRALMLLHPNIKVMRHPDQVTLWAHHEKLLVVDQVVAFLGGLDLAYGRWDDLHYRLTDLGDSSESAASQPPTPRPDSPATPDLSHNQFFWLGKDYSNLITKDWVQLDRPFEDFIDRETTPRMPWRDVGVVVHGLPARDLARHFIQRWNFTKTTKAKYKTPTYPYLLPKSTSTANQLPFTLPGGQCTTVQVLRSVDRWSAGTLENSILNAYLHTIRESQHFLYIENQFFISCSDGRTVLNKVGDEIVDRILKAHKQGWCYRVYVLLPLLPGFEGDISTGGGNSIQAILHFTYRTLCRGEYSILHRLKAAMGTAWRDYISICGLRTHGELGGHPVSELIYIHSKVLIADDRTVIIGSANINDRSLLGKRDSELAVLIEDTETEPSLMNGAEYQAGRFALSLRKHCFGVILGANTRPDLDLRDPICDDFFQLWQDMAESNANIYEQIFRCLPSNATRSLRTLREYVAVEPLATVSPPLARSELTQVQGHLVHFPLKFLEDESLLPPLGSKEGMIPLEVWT
Protocol: A method for measuring human PLD2 enzyme inhibitory activity using an enzyme in which a FLAG-tag is added to the N-terminus of full-length human PLD2 (1-933 amino acids) is shown below.
(§1) DNA fragment in which a FLAG-tag sequence is added to the 5′-end of full-length human PLD2 was amplified by PCR method, using commercially available human PLD2 gene (Promega KK) as a template. The amplified DNA fragment was fused with vector pVL1393 for baculovirus production (Pharmingen) digested with BamHI and EcoRI, using In-Fusion HD Cloning Kit (Takara Bio). The full-length human PLD2-expression plasmid DNA for baculovirus was isolated from Escherichia coli DH5a (TOYOBO) transformed with the obtained In-Fusion reaction product. Next, DNA fragment in which a FLAG-tag sequence is added to the 5′-end of full-length human PLD2 was amplified by PCR method, using the full-length human PLD2-expression plasmid DNA for baculovirus as a template. The amplified DNA fragment was fused with a DNA fragment in which a linker sequence is introduced into pcDNA3.4-TOPO (Life Technologies), using In-Fusion HD Cloning Kit (Takara Bio). The full-length human PLD2-expression plasmid DNA for animal cells was isolated from Escherichia coli DH5a transformed with the obtained In-Fusion reaction product. The base sequence of the full-length human PLD2 cloned into vector was determined by a Dye Terminator method using BigDye Terminator v3.1 Cycle Sequencing Kit (Applied Biosystems). The determined sequence was a sequence in which the FLAG-tag sequence was inserted at the 5′-end of the full-length human PLD2 (GenBank Accession Number: NM 002663).
(§2) Expi293F cells (Life Technologies) were cultured with shaking using Expi293 Expression Medium (Life Technologies) as a medium at 37° C. in the presence of 8% CO2. The gene introduction reagent PEI was prepared by dissolving Polyethylenimine Max (nominally MW 40,000) (Polysciences) in MilliQ water, adjusting the pH of the solution to 7.0 with NaOH to obtain a 1 mg/mL solution, and then filtering the solution through 0.22 μm filter. The full-length human PLD2-expression plasmid DNA for animal cells was transfected into Expi293F cells using PEI, and after 48 hours of shaking culture, the cells were collected and stored at −80° C.
(§3) To the full-length human PLD2-expressed cells was added a Homogenate buffer (20 mmol/L Na-phosphate pH 7.5, 250 mmol/L NaCl, 1 mmol/L MgCl2, 1% β-OG, 0.05 mmol/L DTT+complete EDTA-free (Roche Diagnostics K.K.)), and the cells were lysed by Microfluidizer Processor M-110EH (Mizuho Kogyo Co., Ltd.). The lysate was centrifuged at 10,100×g at 4° C. for 15 minutes, and the supernatant was collected and filtered through 0.45 μm filter. To the centrifuged supernatant was added ANTI-FLAG M2 Affinity Gel (SIGMA-Aldrich) resin equilibrated with a Homogenate buffer, and the mixed solution was stirred at 4° C. for 1 hr or more. The mixed solution was loaded onto Poly-Prep column, and the resin was washed with a Wash buffer (20 mmol/L Na-phosphate pH 7.5, 150 mmol/L NaCl, 1 mmol/L MgCl2, 0.02% Triton, 0.05 mmol/L DTT). A Wash buffer containing 400 μg/mL DYKDDDDK Peptide (Scrum Inc.) was added to the column to elute the protein bound to the resin. The eluted fractions were subjected to SDS-PAGE followed by CBB staining to identify the fractions containing the full-length human PLD2. The eluted fractions of the full-length human PLD2 were collected and concentrated using Amicon Ultra-15 100k (Merck Millipore). The concentrated fractions were collected, flash-frozen in liquid nitrogen and stored at −80° C.
(§4) A DMSO or test substance solution (the DMSO final concentration: 5%) prepared by diluting DMSO or test substance with an Assay buffer (50 mmol/L HEPES pH 7.5, 80 mmol/L KCl, 3 mmol/L EGTA, 3.6 mmol/L MgCl2, 0.01% NP-40, 0.1% BSA), and the solution was added to a 384 well Assay Plate (Black, Polystyrene, Non-Treated, Cat No. 3573, Corning) by 5 μL/well. […]

[2] = biological target: full-length human PLD1 (Homo sapiens (Human), UniProt Q13393); assay: Evaluation of human PLD1 enzyme inhibitory activity (Amplex Red / choline oxidase fluorescence); format: biochemical; settings: for IC50: full-length human PLD1 enzyme, read-out: PLD1 IC50
full-length human PLD1, sequence (Q13393 other isoform, or with tags, fused parts or gaps): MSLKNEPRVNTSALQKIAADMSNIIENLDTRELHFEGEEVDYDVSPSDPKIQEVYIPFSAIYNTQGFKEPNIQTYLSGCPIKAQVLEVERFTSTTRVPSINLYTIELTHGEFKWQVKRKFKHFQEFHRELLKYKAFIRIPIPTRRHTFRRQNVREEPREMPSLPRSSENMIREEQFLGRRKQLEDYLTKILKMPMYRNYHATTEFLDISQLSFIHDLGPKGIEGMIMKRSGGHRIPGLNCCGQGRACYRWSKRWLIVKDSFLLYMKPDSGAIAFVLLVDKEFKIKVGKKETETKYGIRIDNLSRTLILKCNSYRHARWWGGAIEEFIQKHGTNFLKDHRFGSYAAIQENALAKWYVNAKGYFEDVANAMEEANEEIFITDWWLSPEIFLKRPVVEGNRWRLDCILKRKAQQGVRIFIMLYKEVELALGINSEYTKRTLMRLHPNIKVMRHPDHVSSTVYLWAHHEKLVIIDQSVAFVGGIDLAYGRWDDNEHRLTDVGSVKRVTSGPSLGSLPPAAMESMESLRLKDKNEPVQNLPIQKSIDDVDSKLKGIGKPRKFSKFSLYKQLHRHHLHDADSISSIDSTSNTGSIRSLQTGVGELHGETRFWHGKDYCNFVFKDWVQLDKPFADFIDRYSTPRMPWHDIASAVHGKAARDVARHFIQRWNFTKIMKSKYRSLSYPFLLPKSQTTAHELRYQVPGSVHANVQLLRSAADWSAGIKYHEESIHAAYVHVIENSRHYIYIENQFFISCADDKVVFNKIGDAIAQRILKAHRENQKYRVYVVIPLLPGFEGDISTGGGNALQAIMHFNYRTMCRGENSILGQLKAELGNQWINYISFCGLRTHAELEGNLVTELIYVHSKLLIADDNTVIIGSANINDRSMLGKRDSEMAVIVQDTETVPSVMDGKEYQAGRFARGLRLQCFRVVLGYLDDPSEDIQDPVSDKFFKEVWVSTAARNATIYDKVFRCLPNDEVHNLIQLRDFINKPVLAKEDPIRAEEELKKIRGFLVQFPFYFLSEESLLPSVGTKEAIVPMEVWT
Protocol: A method for measuring human PLD1 enzyme inhibitory activity using an enzyme in which a FLAG-tag is added to the N-terminus of full-length human PLD1 (1-1036 amino acids) is shown below.
as §1, with “PLD1” for “PLD2”, “PLD1-expression” for “PLD2-expression”, “NM_001130081).” for “NM 002663).”
as §2, with “PLD1-expression” for “PLD2-expression”
as §3, with “PLD1-expressed” for “PLD2-expressed”, “PLD1.” for “PLD2.”, “PLD1” for “PLD2”
as §4

Structure (SMILES)	IC50 [1]	IC50 [2]	other results
CNC(=O)C(=O)N[C@@H](C)C[C@H]1CC[C@]2(CC1)OC(=O)NN=C2c1ccc(S(C)(=O)=O)cc1 [Example 10]	106 nM	92 nM	
CNC(=O)C(=O)N[C@@H](C)C[C@H]1CC[C@]2(CC1)OC(=O)NN=C2c1ccc(OCC(C)(C)O)cc1Br [Example 130]	< 10 nM	18 nM	
Cc1cc(C(=O)N[C@@H](C)C[C@H]2CC[C@]3(CC2)OC(=O)NN=C3c2cnc(N3C[C@@H]4C[C@H]3CO4)cc2Cl)[nH]n1 [Example 240]	< 10 nM	13 nM	
CNC(=O)N[C@@H](C)C[C@H]1CC[C@]2(CC1)OC(=O)NN=C2c1ccc(F)cc1I [Example 183]	107 nM	42 nM	
C[C@@H](C[C@H]1CC[C@]2(CC1)OC(=O)NN=C2c1ccc(F)cc1Br)NC(=O)C1(O)CC1 [Example 36]	137 nM	221 nM	
CC(=O)N[C@@H](C)C[C@H]1CC[C@]2(CC1)OC(=O)NN=C2c1ccc(F)cc1Br [Example 11]	394 nM	228 nM	
C[C@@H](C[C@H]1CC[C@]2(CC1)OC(=O)NN=C2c1cc(C#N)ccc1Br)NC(=O)c1ncon1 [Example 293]	325 nM	127 nM	
C[C@@H](CN1CCC2(CC1)OC(=O)NN=C2c1cc(C#N)ccc1Br)NC(=O)c1cn(C)cn1 [Example 2-054]	< 10 nM	37 nM	
Cc1cc(C(=O)N[C@@H](C)CN2CCC3(CC2)OC(=O)NN=C3c2ccc(C#N)cc2Br)[nH]n1 [Example 207]	< 10 nM	25 nM	
Cc1cc(C(=O)N[C@@H](C)C[C@H]2CC[C@]3(CC2)OC(=O)NN=C3c2cc(OC(F)(F)F)ccc2Br)[nH]n1 [Example 304]	< 10 nM	< 10 nM	
C[C@@H](C[C@H]1CC[C@]2(CC1)OC(=O)NN=C2c1cc(Cl)ccc1Cl)NC(=O)c1cc2ccccn2c1 [Example 323]	< 10 nM	10 nM	
Cc1cc(C(=O)N[C@@H](C)C[C@H]2CC[C@]3(CC2)OC(=O)NN=C3c2cnc(N3C[C@H]4C[C@@H]3CO4)cc2C)[nH]n1 [Example 249]	< 10 nM	25 nM	
CNC(=O)C(=O)N[C@@H](C)CN1CCC2(CC1)OC(=O)NN=C2c1ccc(C#N)cc1C(F)(F)F [Example 327]	51 nM	110 nM	
CNC(=O)C(=O)N[C@@H](C)C[C@H]1CC[C@]2(CC1)OC(=O)NN=C2c1cc(C#N)ccc1Br [Example 198, N^1—((S)-1-(cis-5-(2-bromo-5-cyanophenyl)-2-oxo-1-oxa-3,4-diazaspiro[5.5]undec-4-en-9-yl)propan-2-yl)-N^2-methyloxamide]	< 10 nM	11 nM	
Cc1cc(C(=O)N[C@@H](C)C[C@H]2CC[C@]3(CC2)OC(=O)NN=C3c2cccnc2)[nH]n1 [Example 16]	968 nM	926 nM	
CNC(=O)C(=O)N[C@@H](C)C[C@H]1CC[C@]2(CC1)OC(=O)NN=C2c1cc(OC(F)F)ccc1C [Example 194]	< 10 nM	< 10 nM	
C[C@@H](C[C@H]1CC[C@]2(CC1)OC(=O)NN=C2c1cccnc1)NC(=O)c1cc2cc(F)ccc2[nH]1 [Example 15]	< 10 nM	25 nM	
CNC(=O)C(=O)N[C@@H](C)C[C@H]1CC[C@]2(CC1)OC(=O)NN=C2c1ncccc1Br [Example 2-013]	< 10 nM	12 nM	
CNC(=O)C(=O)N[C@@H](C)C[C@H]1CC[C@]2(CC1)OC(=O)NN=C2c1cnc(N2CCOCC2)cc1Cl [Example 242]	< 10 nM	16 nM	
CNC(=O)C(=O)N[C@@H](C)C[C@H]1CC[C@]2(CC1)OC(=O)NN=C2c1ccccc1OC(F)(F)F [Example 105]	41 nM	27 nM	
Cc1cc(C(=O)N[C@@H](C)CN2CCC3(CC2)OC(=O)NN=C3c2ccc(C#N)cc2Cl)[nH]n1 [Example 169]	20 nM	34 nM	
Cc1cc(C(=O)N[C@@H](C)C[C@H]2CC[C@]3(CC2)OC(=O)NN=C3c2cccc(OC(F)F)c2Br)[nH]n1 [Example 307]	< 10 nM	13 nM	
C[C@@H](C[C@H]1CC[C@]2(CC1)OC(=O)NN=C2c1nccn1CC1CC1)NC(=O)c1cc(Cl)no1 [Example 83]	221 nM	259 nM	
CNC(=O)C(=O)N[C@@H](C)C[C@]1(C#N)CC[C@@]2(CC1)OC(=O)N(C)N=C2c1cc(C#N)ccc1Br [Example 2-112]			inhibition at 10 µM ([1]; read-out: human PLD2 % inhibition at 10 μM): 39%; inhibition at 10 µM ([1]; read-out: inhibition rate of PLD2 at 10 μM compound): 39%
CNC(=O)C(=O)N[C@@H](C)C[C@]1(C#N)CC[C@@]2(CC1)OC(=O)NN=C2c1cc(OCC(F)F)ncc1Br [Example 2-099]			inhibition at 10 µM ([2]; read-out: human PLD1 % inhibition at 10 μM): 21%; inhibition at 10 µM ([2]; read-out: inhibition rate of PLD1 at 10 μM compound): 21%
